Assays:
whole blood (WB) clot [1] = test: Clot burst pressure (CBP) assay on conditioned whole blood; assay type: cell-based; details: for CBP normalized to individual donor baseline (times as strong): recalcified 6 mM CaCl2, 37 C 30 min
Description: An exemplary embodiment of the present disclosure was used to obtain test data as follows. Blood from donors (n=7) was collected into 3.2% sodium citrate tubes. Blood was divided and treated to achieve the following conditions for a hypocoagulable state: 0.10, 0.15, and 0.20 USP heparin/mL blood; for a hypercoagulable state, blood was treated with a 1.0 or 2.0 g/L addition of fibrinogen. 2 mm holes were drilled into 6-well polystyrene plates and packing tape was used to cover the bottom. Blood was recalcified with CaCl2 and pipetted into the holes. The plates were incubated at 37 C for 30 minutes to allow for thrombus formation. Tape was removed after incubation. A pressure cap was designed with an inlet for fluid from a syringe pump and an outlet for outflow and was secured in the wells with a watertight seal. Outflow led to a vertical graduated measurement column where pressure was converted from cmH2O to mmHg for data analysis.
The device comprises four primary components as shown in FIG. 1: a syringe pump, a pressure cap, a 6-well plate assembly, and a water column. A Programmable Syringe Pump was programmed to pump a 100 cc syringe at 1 mL/s at a continuous rate. The syringe pump is coupled to a pressure cap assembly.
The pressure cap assembly shown in FIGS. 2 and 3 directs fluid flow directly over a clot and prevents pressure loss to the environment. The cap has two female ports allowing for an inlet connection from the syringe pump and an outlet connecting to the water column. The cap has three legs to avoid direct contact with a clot. An O-Ring (Dash 242) fits in the groove found around the pressure cap ensuring a snug fit in a standard 6-well plate. As fluid enters the pressure cap, it is directed into a compartment where a formed clot is suspended. Backflow fluid rises up a 150 cm water column created from clear PVC pipe marked at 5 cm intervals. All connections used Luer locks and barbed connections to prevent fluid loss.
A 20″×20″ HDPE board was used as the base of the device, which contained the 6-well plate assembly and water column. 4, 2″ screws were used to elevate the 6-well plate assembly to allow for easy visual inspection after trial runs. A single 5/64″ hole was drilled into the centers of each well in a 6-well plate. 220-grit sandpaper was used in a circular manner on the inner surface of the well-plate to provide a sheared surface for platelet adhesion. Clear packing tape was used to cover the holes on the bottom of the plate prior to the start of the assay.
Venipuncture whole blood (WB) was collected from donors (male and female) who were at least 18 years of age and had not taken anticoagulant medication in the past 14 days. Blood was drawn from the antecubital fossa using a 19G needle into a standard blue top 3.2% sodium citrate vacutainer tube. Tubes were placed on a rocker at room temperature prior to use in the assay, but all assay runs were initiated within 30 minutes of blood draw.
WB was conditioned to mimic hyper and hypocoagulable states. RiaSTAP a lyophilized fibrinogen concentrate, was used to generate a hypercoagulable condition. WB was conditioned with a 1.0 mg/mL or 2.0 mg/mL bolus of fibrinogen. Heparin sodium salt (Sigma-Aldrich, OH) was reconstituted and added to WB at 0.10, 0.15, 0.20 USP/mL amounts to generate a hypocoagulable state. 6 mM of CaCl2) was added to each conditioned blood group and a control group to recalcify and promote coagulation.
35 μL of conditioned or control WB was placed in the 5/64″ hole above the packing tape in each well of the 6-well plates. The entire plate was incubated at 37 C for 30 min with the plate lid on. After 30 min, the plate was removed from the incubator and the packing tape on the bottom was removed. The pressure cap was placed in a single well in a spiral manner and an air-tight seal was created with the O-Ring. One port of the pressure cap was connected to the syringe pump and the other port to the vertical water column. […]

whole blood (WB) clot [2] = test: as above; assay type: cell-based
[3] = Whole Blood w/ Heparin 0.10 USP/mL
[4] = Whole Blood w/ Heparin 0.15 USP/mL
[5] = Whole Blood w/ Heparin 0.20 USP/mL

Substance: Heparin sodium salt
- Clot Integrity (whole blood (WB) clot [1]; [3]): Weakened Clot
- Difference Between All Groups in CBP (whole blood (WB) clot [1]; [3]): Yes
- Clot Integrity (whole blood (WB) clot [1]; [4]): Weakened Clot
- Difference Between All Groups in CBP (whole blood (WB) clot [1]; [4]): Yes
- Clot Integrity (whole blood (WB) clot [1]; [5]): Weakened Clot
- Difference Between All Groups in CBP (whole blood (WB) clot [1]; [5]): Yes
- Dose dependence of clot strength (CBP) (whole blood (WB) clot [1]; between the 0.10 and 0.20 USP heparin/mL group, whole blood): dose-dependent weakness
- Clot formation (whole blood (WB) clot [1]; heparin 0.20-0.10 USP/mL range in whole blood): weaker, but stable clot
- CBP normalized to individual donor baseline (times as strong) (whole blood (WB) clot [1]; whole blood + 0.10 USP heparin/mL): 0.54±0.19
- CBP normalized to individual donor baseline (times as strong) (whole blood (WB) clot [1]; whole blood + 0.15 USP heparin/mL): 0.41±0.17
- CBP normalized to individual donor baseline (times as strong) (whole blood (WB) clot [1]; whole blood + 0.20 USP heparin/mL): 0.25±0.02
- Clot Integrity (whole blood (WB) clot [2]; Whole Blood w/ Heparin 0.25 USP/mL): Porous Clot
- Clot Integrity (whole blood (WB) clot [2]; Whole Blood w/ Heparin 0.35 USP/mL, listed as heparin, sodium salt): completely inhibits clot production
- Clot Integrity (whole blood (WB) clot [2]; Whole Blood w/ Heparin 0.35 USP/mL, sodium salt): No Clot Formation

Reference: patent US20260227379A1, “DEVICES AND METHODS FOR CLOT BURST PRESSURE MEASUREMENT” (THE BOARD OF REGENTS OF THE UNIVERSITY OF TEXAS SYSTEM, priority 2023, published 2026)
